Results published in patent EP0432183B1, “NEW CITYDIN-5'-DIPHOSPHATE ALKANOLS AND GLYCEROLS, A PROCESS FOR PREPARING THEM AND THEIR USE” (Clarion Pharmaceuticals, Inc., priority 1988, dated 1990).

Tested on: Ehrlich Ascites-Tumorzellen
Assay: Concentration-dependent growth inhibition of Ehrlich ascites tumour cells (antiproliferative effect)
Format: cell-based
Conditions: Wachstumshemmung, read-out: Hemmung (%); for inhibition at 3 µM: Konzentration 3 μmolar; for inhibition at 10 µM: Konzentration 10 μmolar; for inhibition at 30 µM: Konzentration 30 μmolar; for inhibition at 100 µM: Konzentration 100 μmolar
Text: Zur Bestimmung der cytostatischen Wirkung wurde die antiproliferative Wirkung bei Ehrlich-Ascites Tumorzellen untersucht. Dabei zeigte sich, daß die erfindungsgemäßen Verbindungen ausgezeichnete cytostatische Wirkung aufweisen. Sie können daher allein oder in Mischung mit anderen Wirksubstanzen in Form üblicher galenischer Zubereitungen als Cytostatika oder Virustatika eingesetzt werden.
Konzentrationsabhängige Wachstumshemmung von Ehrlich Ascites-Tumorzellen.

Row | Compound | inhibition at 3 µM [%] | inhibition at 10 µM [%] | inhibition at 30 µM [%] | inhibition at 100 µM [%]
1 | CCCCCCCCCCCCCCCCOP(=O)(O)OP(=O)(O)OC[C@H]1O[C@@H](n2ccc(N)nc2=O)[C@H](O)[C@@H]1O [Bsp. 1, Cytidin-5'-diphosphat-hexadekanol] | 12 | 19 | 46 | 31
2 | CCCCCCCCCCCCCCCCOCC(COP(=O)(O)OP(=O)(O)OC[C@H]1O[C@@H](n2ccc(N)nc2=O)[C@H](O)[C@@H]1O)OCC(F)(F)F (stereo partly shown) [Bsp. 2, Cytidin-5'-diphosphat-1-0-hexadecyl-2-0-(2,2,2-trifluorethyl)glycerol] | 9.5 | 30 | 86 | 100
3 | CCCCCCCCCCCCCCCCOCC(Cl)COP(=O)(O)OP(=O)(O)OC[C@H]1O[C@@H](n2ccc(N)nc2=O)[C@H](O)[C@@H]1O (stereo partly shown) [Bsp. 4, Cytidin-5'-diphosphat-2-chlor-2-desoxy-1-0-hexadecylglycerol] | 18 | 38 | 67 | 94
4 | CCCCCCCCCCCCCCCCOCC(CCl)OP(=O)(O)OP(=O)(O)OC[C@H]1O[C@@H](n2ccc(N)nc2=O)[C@H](O)[C@@H]1O (stereo partly shown) [Bsp. 3, Cytidin-5'-diphosphat-3-chlor-3-desoxy-1-0-hexadecylglycerol] | 12 | 17 | 29 | 69
